Source: article PMC5542762 (ChemistryOpen, 2017)
Structures can show the parent of a compound that is named as a salt.

Experiments:
PFDH = biological target: T1, PFDH (Pseudomonas sp. 101, UniProt P33160); assay: NAD+ reduction at […] nm, 96-well plate; type: biochemical; details: sodium formate 20 mM, NAD+ 0.50 mM; Na2CO3-NaHCO3 100 mM, pH 9.0, room temperature
T1 sequence (P33160 2-401): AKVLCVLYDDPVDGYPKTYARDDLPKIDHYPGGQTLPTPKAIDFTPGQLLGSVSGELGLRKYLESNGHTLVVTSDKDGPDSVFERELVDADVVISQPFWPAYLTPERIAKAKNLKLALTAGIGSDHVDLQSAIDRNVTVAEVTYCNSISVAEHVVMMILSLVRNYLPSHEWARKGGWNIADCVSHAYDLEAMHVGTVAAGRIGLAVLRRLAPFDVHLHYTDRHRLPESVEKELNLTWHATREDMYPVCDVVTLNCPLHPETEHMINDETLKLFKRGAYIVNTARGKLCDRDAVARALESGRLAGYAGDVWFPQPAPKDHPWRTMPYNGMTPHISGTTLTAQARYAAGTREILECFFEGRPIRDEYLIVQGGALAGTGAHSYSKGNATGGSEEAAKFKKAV

EcTAL = biological target: T2, EcTAL (Escherichia coli, UniProt P04968); assay: HPLC of remaining L-threonine after FDAA derivatization; type: biochemical; details: L-threonine 100 mM, pyridoxal phosphate 10 μM; Na2CO3-NaHCO3 100 mM, pH 9.0, 30 °C
T2 sequence (P04968 1-514): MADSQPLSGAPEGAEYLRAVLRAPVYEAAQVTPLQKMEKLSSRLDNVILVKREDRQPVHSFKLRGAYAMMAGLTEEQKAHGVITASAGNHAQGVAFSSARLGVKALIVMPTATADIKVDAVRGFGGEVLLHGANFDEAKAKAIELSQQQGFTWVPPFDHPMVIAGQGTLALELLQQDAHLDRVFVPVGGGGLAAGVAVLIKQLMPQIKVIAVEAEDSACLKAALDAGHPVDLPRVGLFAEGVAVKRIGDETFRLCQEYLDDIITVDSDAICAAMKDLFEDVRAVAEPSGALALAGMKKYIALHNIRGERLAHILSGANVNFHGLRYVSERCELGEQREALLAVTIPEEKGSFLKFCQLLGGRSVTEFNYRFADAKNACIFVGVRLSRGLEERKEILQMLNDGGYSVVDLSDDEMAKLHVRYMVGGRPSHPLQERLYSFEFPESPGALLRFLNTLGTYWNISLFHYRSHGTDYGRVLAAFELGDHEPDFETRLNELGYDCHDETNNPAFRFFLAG

Structure (SMILES)	NAD+ reduction at 340 nm, 96-well plate (PFDH)	HPLC of remaining L-threonine after FDAA derivatization (EcTAL)
O=CO [sodium formate]	the activity of the FDH toward the oxidation of formate were determined	–
C[C@@H](O)[C@H](N)C(=O)O [L-threonine]	–	The activity of EcTAL toward L‐threonine was determined by measuring the decrease of threonine
